The values below come from patent US12527782B2, “Use of hexokinase 2/mitochondria-detaching compounds for treating hexokinase-2 (HK2)-expressing cancers” (Vidac Pharma Ltd., priority 2016, dated 2026).

As a reminder, the IC50 is the midpoint of a concentration-inhibition curve. Lower therefore signals inhibition by little substance.

Series [1] relates to Lung (SCLC) LXFS 538. Nature of the series: CFA, LXFS 538. Type of series: cell-based, human. Particulars: PDX/CFA. On the procedure:
(§1) CFA was performed by Charles River Laboratories (Freiburg, Germany) in 96-well plate format according to a modified two-layer soft agar assay. The origin of the tumor xenografts has been described (Fiebig et al. 1989, incorporated herein by reference). The list of tumors used in this study is detailed in Table 1.

Series [2] deals with Head & Neck HNXF 908. Nature of the series: CFA, HNXF 908. Particulars: PDX/CFA. Type of series: cell-based, human. On the procedure: as §1
The nature of series [3]: Phase 2a in subjects with actinic keratosis, pharmacokinetics. Type of series: in vivo, human. Particulars: subjects with AK; topical application. The procedure: The Phase 2 clinical trial was a multiple-center randomized, double-blind, placebo-controlled, parallel-cohorts study to evaluate the efficacy, safety, tolerability, and pharmacokinetics of once-daily application of topical Formula C ointment (QD 200 mg) for 28 days in subjects with actinic keratosis. Subjects were followed for one or two months after they completed treatment (through day 56 or day 84). The primary and exploratory efficacy endpoints for the study were reduction in the number of lesions on days 56 and 84, respectively. Subjects were randomly assigned in a double-blind fashion to one of three parallel treatment cohorts (5%, or 10% Formula C, or placebo) at a ratio of 1:1:1. To qualify for the study, subjects aged 18 (inclusive) or older must have had 4-8 discrete Grade 1 or 2 AK lesions within a 25-centimeter squared area of the skin of their scalp or face. The study enrolled 93 subjects in the US and Israel.

Series [4] can be described thus: Phase 1a single topical application, pharmacokinetics. Type of series: in vivo, human. Particulars: healthy volunteers. On the procedure:
The Phase 1a clinical trial was a randomized, double-blinded, placebo-controlled, dose-escalation study in healthy older-adult volunteers to evaluate the safety, tolerability, and pharmacokinetics of a single topical dermal application of Formula C ointment. The study was conducted under FDA IND in a Phase 1 unit in the United States.
Fifteen healthy volunteers, aged 35-70, were sequentially assigned to 1 of 3 consecutive treatment cohorts (5%, 10% or 20% Formula C ointment, respectively). Five subjects were randomized in a double-blind fashion in each dose cohort: 4 subjects received active Formula C ointment and 1 received matched placebo (0% Formula C; vehicle control). The study ointment (250 mg) was applied once to a 25 centimeter squared area of skin on the forehead of each volunteer.

Series [5] has as its system Breast MAXF 1322. Nature of the series: CFA, MAXF 1322. Type of series: cell-based, human. Particulars: PDX/CFA. On the procedure: as §1
In series [6] the test system is HaCaT normal immortal keratonocytes. Nature of the series: XTT cell viability assay, HaCaT. Type of series: cell-based, human. The settings on record: Cell line/XTT, 72 hr. On the procedure:
(§2) A431 (human skin SCC), HT-297.T (human AK), and HaCaT transformed normal keratinocyte cell lines were from ATCC (Manassas, VA) and were maintained in DMEM supplemented with 10% FCS, 4 mM L-Gln, 1 mM sodium pyruvate, 100 U/mL penicillin, 1 μg/mL streptomycin. Human HK1 and HK2 plasmids were purchased from Addgene (Cambridge, MA) and were purified from E. Coli. VDAC1 was purified from sheep liver mitochondria as described (Arbel et al. 2012, incorporated herein by reference). Human skin tissue microarray (SK208 and SK 805) were purchased from US Biomax Inc. (Rockville, MD).
For XTT assays, cells were plated in 96-well plates (5,000 cells per well) for 24 hours. Cells were then incubated with different concentrations of Formula C in triplicates for 72 hr in DMEM supplemented with 0.5% FCS and 5 mM Glucose. Cell viability was evaluated using 2,3-bis-(2-methoxy-4-nitro-5-sulfophenyl)-2H-tetrazolium-5-carboxanilide (XTT)-based colorimetric assay kit (Biological Industries Ltd., Kibbutz Beit-Haemek, Israel). The optical density was measured by an Infinite 200 ELISA reader at 450 nm and reference was measured at 630 nm (Tecan, Männedorf, Switzerland).

Series [7] is described as follows: Skin irritation in naïve SKH-1 mice. Type of series: in vivo, mouse. Particulars: skin of naïve SKH-1 mice.
The test system of series [8] is Stomach GXF 97. Nature of the series: CFA, GXF 97. Type of series: cell-based, human. Particulars: PDX/CFA. The procedure:
as §1

Series [9] concerns Stomach GXF 214. Nature of the series: CFA, GXF 214. Type of series: cell-based, human. Particulars: PDX/CFA. On the procedure:
as §1

Series [10] deals with Leukemia (AML) LEXFAM THP-1. The series can be described thus: CFA, LEXFAM THP-1. Type of series: cell-based, human. Particulars: Cell line/CFA. On the procedure:
as §1

The test system of series [11] is Leukemia (AML) LEXFAM HL-60. Nature of the series: CFA, LEXFAM HL-60. The settings on record: Cell line/CFA. Type of series: cell-based, human. On the procedure: as §1
Series [12] deals with Head & Neck HNXF 2205. Nature of the series: CFA, HNXF 2205. The settings on record: PDX/CFA. Type of series: cell-based, human. The procedure: as §1
The subject of series [13] is Skin SCC VXF A-431. Nature of the series: CFA, VXF A-431. Particulars: Cell line/CFA. Type of series: cell-based, human. On the procedure:
as §1

For series [14], the system named is Colon CXF 280. The series can be described thus: CFA, CXF 280. Particulars: PDX/CFA. Type of series: cell-based, human. The procedure: as §1
Series [15] deals with Lymphoma (Non-Hodgkin) LYXF MY-LA. Nature of the series: CFA, LYXF MY-LA. Type of series: cell-based, human. Particulars: Cell line/CFA. The procedure:
as §1

For series [16], the system named is Leukemia (BCLL) LEXFCM EM-2. The series can be described thus: CFA, LEXFCM EM-2. Type of series: cell-based, human. The settings on record: Cell line/CFA. On the procedure: as §1
Series [17] deals with A431 cells. The series can be described thus: Apoptosis: cleaved caspase-3 ELISA, A431 cells. Type of series: cell-based, human. Particulars: within 6 hours of treatment. The procedure: Apoptosis induction was determined by semi-quantification of cytochrome C levels in the mitochondrial fraction analyzed by WB, following 2 hours of treatment with Formula C in A431 cells. Cleaved caspase-3 levels were analyzed following 6 hours of Formula C treatment in A431 cells, using PathScan® Cleaved Caspase-3 Sandwich ELISA kit (CST, Danvers, MA).
For orientation: ELISA stands for enzyme-linked immunosorbent assay.

Series [18] relates to Colon CXF HCT 116. The series can be described thus: CFA, CXF HCT 116. Type of series: cell-based, human. Particulars: PDX/CFA. On the procedure: as §1
The test system of series [19] is Skin SCC SXFS 627. Nature of the series: CFA, SXFS 627. The settings on record: PDX/CFA. Type of series: cell-based, human. The procedure: as §1
Series [20] has as its system A431 cells. The series can be described thus: Cellular ATP determination (CellTiter-Glo) in A431 cells. Particulars: 2-hour incubation. Type of series: cell-based, human. On the procedure: Cellular ATP levels were determined using CellTiter-Glo® Luminescent Cell Viability Assay kit (Promega, Madison, WI) following 2 hours of treatment at 37° C.
A general note: ATP-based viability assays read luminescence as a measure of living cells.

Series [21] addresses T1, HK2 (Homo sapiens, UniProt P52789).
T1 construct: host or cells: E. coli
The series can be described thus: HK catalytic activity coupled enzymatic assay, HK2. Type of series: biochemical. Particulars: as a function of ATP or glucose; absence or presence of 10 M Formula C. On the procedure: as §2
Hexokinase catalytic activity was determined by the coupled enzymatic assay in which hexokinase catalyzes the conversion of glucose to G6P, which is then oxidized by glucose-6-phosphate dehydrogenase (G6PDH) in the presence of NADP to form 6-Phospho-D-Gluconate and NADPH. NADPH production results in a colorimetric signal at 340 nm, which is proportional to the hexokinase catalytic activity. The readings were recorded in an ELISA plate reader Infinite 200 ELISA reader (Tecan, Männedorf, Switzerland).

Structures are written as SMILES. Entries after “also recorded” stand apart in the source; their conditions may differ.

T1 sequence (P52789 whole entry): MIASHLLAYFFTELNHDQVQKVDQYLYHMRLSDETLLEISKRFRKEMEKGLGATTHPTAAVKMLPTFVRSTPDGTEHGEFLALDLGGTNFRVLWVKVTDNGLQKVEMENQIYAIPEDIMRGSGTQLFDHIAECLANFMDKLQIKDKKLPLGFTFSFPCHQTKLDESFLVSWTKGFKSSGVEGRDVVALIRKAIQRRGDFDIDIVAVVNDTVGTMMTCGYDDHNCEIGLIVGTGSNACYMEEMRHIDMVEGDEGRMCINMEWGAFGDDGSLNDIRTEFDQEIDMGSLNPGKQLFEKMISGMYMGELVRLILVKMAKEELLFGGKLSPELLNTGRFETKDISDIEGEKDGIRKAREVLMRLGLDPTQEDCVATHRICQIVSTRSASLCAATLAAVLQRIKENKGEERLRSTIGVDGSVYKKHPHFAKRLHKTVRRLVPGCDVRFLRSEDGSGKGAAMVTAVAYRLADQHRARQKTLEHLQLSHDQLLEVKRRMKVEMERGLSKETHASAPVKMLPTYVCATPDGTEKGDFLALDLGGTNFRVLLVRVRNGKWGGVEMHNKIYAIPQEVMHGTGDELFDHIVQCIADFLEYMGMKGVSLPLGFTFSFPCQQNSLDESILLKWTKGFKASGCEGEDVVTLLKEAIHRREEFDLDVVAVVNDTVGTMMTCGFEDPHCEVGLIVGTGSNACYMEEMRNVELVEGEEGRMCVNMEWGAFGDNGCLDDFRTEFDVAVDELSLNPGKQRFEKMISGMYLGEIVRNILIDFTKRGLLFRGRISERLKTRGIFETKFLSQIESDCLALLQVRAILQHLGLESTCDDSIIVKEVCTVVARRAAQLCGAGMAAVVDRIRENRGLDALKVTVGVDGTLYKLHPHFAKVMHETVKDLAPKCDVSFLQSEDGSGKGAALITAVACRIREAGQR

`CC/C=C\CC1C(=O)CCC1CC(=O)Oc1cccc2cccnc12` (stereo not drawn) [Formula C]: the IC50 came out at 163 nM in series [1]; 3880 nM in [2]; 1550 nM in [5]; 3370 nM in [6]; 6450 nM in series [8]; 1940 nM in [9]. Besides, the IC50 in series [10] was determined as 2180 nM; in series [11], 1540 nM; in [12], 3960 nM; in series [13] it was 364 nM; in series [14] it was 5440 nM; in [15], 1000 nM. Besides, the IC50 stood at 2780 nM in [16], 4330 nM in series [18] and 1560 nM in [19]. Further, the “systemic exposure of VDA-1102 or its major metabolite” value in series [3] and in series [4] was “No systemic exposure” in each case. For the same compound, the skin irritation entry in series [7] is listed as “did not cause any irritation”. In addition, the “cellular levels of cleaved caspase-3” value in series [17] is listed as “increase in cellular levels of cleaved caspase-3”. The “reduction of cellular ATP levels” value in series [20] was no more than 50%. Also, the HK2 catalytic activity entry in [21] was “does not affect; also recorded: did not affect the catalytic activity”.
